US20090220516A1, “Neuroprotection of retinal ganglion cells” (priority 2005, published 2009)

Tests used:
[1] = system: retinal ganglion cells; experiment: Cell viability studies: labeled retinal ganglion cells surviving after 24 hrs in mixed retinal cultures; type: cell-based, rat; conditions: 300 uM ATP alone, 24 hrs
Protocol: Pups PD2-6 from untimed pregnant Long-Evan rats (Jackson Laboratory Inc., Bar Harbor, Me.) were back-labeled by the injection of FluoroGold derivative aminostilbamidine (Molecular Probes, Eugene, Oreg.) based upon standard protocols. […] Using a Hamilton syringe affixed to a micromanipulator, a needle was inserted 0.8 mm lateral from the midline and 0.8 mm anterior to Bregma's line and a total of 2.5 μl dye was delivered to each side at a depth of 2 mm and 1 mm. The needle was retracted after a delay of 2 min to allow dye absorption and the wound was closed with 2-3 sutures. Preliminary examination of labeled retinal whole mounts confirmed an even distribution of dye, showing all cells were stained 2 days after injection, with no further increase in the number of labeled cells in subsequent days. Consequently, retinas containing labeled ganglion cells were dissociated 2-6 days after injection. Animals were sacrificed by i.p. injection of 50/5 mg/kg Ketamine/Xylazine followed by an overdose, in accordance with University of Pennsylvania IACUC approved protocols and the ARVO Statement on the Use of Animals in Ophthalmic and Vision Research.
The retina was dissected from each globe, washed in sterile Hanks' balanced salt solution (HBSS, Gibco, Inc Invitrogen Corp., Carlsbad, Calif.), then incubated in HBSS containing activated papain (4.5 U/ml; Worthington Biochemical Corp., Lakewood, N.J.) for 12 minutes at 37° C. Retinas were washed twice and triturated 50 times with a 1-ml glass pipette to dissociate cells. Cells were plated onto twelve 12-mm coverslips previously coated with poly-L-lysine. […] Retinal cells were incubated at 37° C. with 5% CO2.
Drugs were added to the culture medium at the time when cells were plated onto coverslips. […] All counts were performed in a masked fashion. In experiments involving antagonist pretreatment, drugs were added to the medium at the time of plating. After preincubation at 37° C., stock concentrations of BzATP were added directly to the cells to give the final concentration shown.
Data are presented as mean±standard error of the mean. Significance was evaluated using a Student's unpaired t test, with a p value <0.05 signifying significance. For cell viability studies, the number of experiments, n, represents the number of coverslips from which 80 fields were measured and averaged. All values were normalized to the mean control level for that day's matched set of experiments to control for variation in plating efficiency.

[2] = target: T1, rat P2X7 receptor (Rattus norvegicus, UniProt Q64663); conditions: cited from earlier work
T1 sequence (Q64663 1-595): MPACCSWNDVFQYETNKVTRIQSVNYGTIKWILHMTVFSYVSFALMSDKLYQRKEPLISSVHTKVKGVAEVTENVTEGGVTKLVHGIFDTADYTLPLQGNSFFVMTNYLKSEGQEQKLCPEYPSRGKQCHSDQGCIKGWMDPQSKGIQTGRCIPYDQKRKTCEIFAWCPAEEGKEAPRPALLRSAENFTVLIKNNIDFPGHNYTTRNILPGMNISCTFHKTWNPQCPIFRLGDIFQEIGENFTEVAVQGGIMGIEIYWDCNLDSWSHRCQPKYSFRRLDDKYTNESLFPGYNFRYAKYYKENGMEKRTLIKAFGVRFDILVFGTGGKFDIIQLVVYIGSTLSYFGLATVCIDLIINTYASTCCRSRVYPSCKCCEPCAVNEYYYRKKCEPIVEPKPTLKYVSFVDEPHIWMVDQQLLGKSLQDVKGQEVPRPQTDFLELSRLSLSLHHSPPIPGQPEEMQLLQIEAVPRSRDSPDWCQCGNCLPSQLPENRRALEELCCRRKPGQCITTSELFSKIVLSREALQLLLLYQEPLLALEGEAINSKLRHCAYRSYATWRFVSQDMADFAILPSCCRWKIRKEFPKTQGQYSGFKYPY

[3] = system: retina eyecup; experiment: Pressure-triggered ATP release from the bovine retina eyecup; conditions: 30 μM NPPB, 15 minutes preincubation and in medium
Text: C. ATP release by increased extracellular pressure is inhibited by the general chloride channel blocker NPPB, indicating physiologic significance. […] The ATP levels were normalized with the non-pressure and non NPPB eyecup control levels (white bar). Bars represent the mean±standard error. Numbers indicates the number of retina eyecups per experiment. We performed ANOVA test (Dunnett post-test) to obtain the significant differences indicated by a * symbol (p<0.05) as significant difference with control and ** (p<0.05) as significant difference with the pressure challenged eyecups.

SMILES	effect on ganglion cell survival [1]	EC50 [2] [µM]	effect on ATP release induced by 20 mm Hg rise in extracellular pressure [3]
Nc1ncnc2c1ncn2C1OC(COP(=O)(O)OP(=O)(O)OP(=O)(O)O)C(O)C1O (stereo not drawn) [ATP]	small but significant increase in cell survival	300	–
O=C(O)c1cc([N+](=O)[O-])ccc1NCCCc1ccccc1 [NPPB, 5-nitro-2-(3-phenylpropyl-amino)benzoic acid]	–	–	inhibits the ATP release
